Tests used:
[1] = target: T1, DNA topoisomerase 2-alpha (Homo sapiens, UniProt P11388); test: Inhibition of human topoisomerase 2-alpha assessed as reduction in relaxation of pBR322 DNA at 100 uM measured after 30 mins by agarose gel electrophoresis method relative to control
MDA-MB-231 = test: Antiproliferative activity against human MDA-MB-231 cells incubated for 72 hrs by CCK8 assay; format: functional, cell-based; details: Homo sapiens, MDA-MB-231, 72 h
[2] = target: T1, DNA topoisomerase 2-alpha; test: Inhibition of human topoisomerase 2-alpha assessed as reduction in relaxation of pBR322 DNA at 25 uM measured after 30 mins by agarose gel electrophoresis method relative to control
HepG2 = test: Antiproliferative activity against human HepG2 cells incubated for 72 hrs by CCK8 assay; format: functional, cell-based; details: Homo sapiens, HepG2, 72 h

T1 sequence (P11388 whole entry): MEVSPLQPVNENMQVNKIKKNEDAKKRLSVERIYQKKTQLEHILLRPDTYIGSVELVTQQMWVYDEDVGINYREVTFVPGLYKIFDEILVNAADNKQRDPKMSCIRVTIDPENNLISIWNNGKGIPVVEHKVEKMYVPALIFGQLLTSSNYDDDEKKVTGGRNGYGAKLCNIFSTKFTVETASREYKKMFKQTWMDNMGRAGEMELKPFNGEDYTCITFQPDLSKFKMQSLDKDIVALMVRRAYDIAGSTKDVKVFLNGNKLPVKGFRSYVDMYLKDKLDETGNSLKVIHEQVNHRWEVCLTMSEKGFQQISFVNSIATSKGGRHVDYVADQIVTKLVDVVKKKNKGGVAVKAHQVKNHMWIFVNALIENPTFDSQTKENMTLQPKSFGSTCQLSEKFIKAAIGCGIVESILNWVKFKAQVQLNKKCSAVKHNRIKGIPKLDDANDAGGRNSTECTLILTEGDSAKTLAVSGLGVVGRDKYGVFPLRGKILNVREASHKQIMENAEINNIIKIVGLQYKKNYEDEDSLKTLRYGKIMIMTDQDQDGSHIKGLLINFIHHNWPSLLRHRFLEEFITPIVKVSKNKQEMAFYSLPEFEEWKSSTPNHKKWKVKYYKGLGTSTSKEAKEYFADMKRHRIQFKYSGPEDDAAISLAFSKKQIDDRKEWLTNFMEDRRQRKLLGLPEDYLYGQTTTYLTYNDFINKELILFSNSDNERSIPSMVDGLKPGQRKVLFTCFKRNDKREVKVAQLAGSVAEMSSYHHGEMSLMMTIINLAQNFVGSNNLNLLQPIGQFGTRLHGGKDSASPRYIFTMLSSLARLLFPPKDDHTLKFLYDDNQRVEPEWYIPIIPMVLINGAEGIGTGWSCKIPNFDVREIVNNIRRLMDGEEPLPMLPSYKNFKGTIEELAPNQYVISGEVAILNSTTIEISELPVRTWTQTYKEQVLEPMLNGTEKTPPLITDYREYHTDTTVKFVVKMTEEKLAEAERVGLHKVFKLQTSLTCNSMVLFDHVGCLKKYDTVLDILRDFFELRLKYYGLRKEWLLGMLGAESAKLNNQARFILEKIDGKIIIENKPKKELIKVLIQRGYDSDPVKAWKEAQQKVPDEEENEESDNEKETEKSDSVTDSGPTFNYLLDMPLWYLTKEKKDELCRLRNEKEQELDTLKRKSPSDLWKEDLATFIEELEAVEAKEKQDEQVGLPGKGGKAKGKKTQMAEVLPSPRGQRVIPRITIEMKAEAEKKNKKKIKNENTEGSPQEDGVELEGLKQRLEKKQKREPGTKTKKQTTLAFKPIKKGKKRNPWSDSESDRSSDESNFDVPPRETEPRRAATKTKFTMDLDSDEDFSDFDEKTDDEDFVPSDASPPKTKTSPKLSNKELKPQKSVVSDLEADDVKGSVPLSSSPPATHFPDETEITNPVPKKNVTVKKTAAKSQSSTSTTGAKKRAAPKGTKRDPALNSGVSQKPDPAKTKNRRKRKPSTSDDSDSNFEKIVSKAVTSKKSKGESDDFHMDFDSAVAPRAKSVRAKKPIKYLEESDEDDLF

SMILES	inhibition [1] [%]	IC50 (MDA-MB-231) [µM]	inhibition [2] [%]	IC50 (HepG2) [µM]
Oc1ccc(-c2cc(/C=C/c3cc(O)cc(O)c3)ccc2O)cc1	64	39.2	17.6	
O=[N+]([O-])c1cccc(-c2cc(/C=C/c3cc(O)cc(O)c3)ccc2O)c1	93.6	33.2	97.1	
COc1ccc2nc(-c3ccc(NC(=O)/C=C/c4ccccc4)cc3)sc2c1	36.7		0	
NC(=O)/C=C/c1ccc(/C=C/c2cc(O)cc(O)c2)cc1	29.8		3.9	
Oc1cc(O)cc(/C=C/c2ccc(O)c(-c3cccc(O)c3)c2)c1	72.1	42.3	34.5	
COc1ccc2nc(-c3ccc(N)cc3)sc2c1		37.2		
O=C(/C=C/c1ccccc1)Nc1ccc(CCc2cc(O)cc(O)c2)cc1	11.3	4.2		2.8
CCCNC(=O)/C=C/c1cc(/C=C/c2cc(O)cc(O)c2)ccc1O	59.6		1.7	
COc1cc(OC)cc(C(=O)Nc2ccc(NC(=O)CCc3ccccc3)cc2)c1	3.7			
O=C(/C=C/c1ccccc1)Nc1ccc(-c2cnc3cc(O)ccc3c2)cc1	82.3		55.4	
COc1cc(/C=C/c2ccc(NC(=O)CCc3ccccc3)cc2)cc(OC)c1	0.2	7.2		10.9
C/C=C/C(=O)Nc1ccc(O)c(/C=C/c2cc(O)cc(O)c2)c1	52.7		0.6	
COc1ccc2cc(-c3ccc(NC(=O)/C=C/c4ccccc4)cc3)cnc2c1	0.1	39.5		37.4
COc1cc(OC)cc(C(=O)Nc2ccc(NC(=O)/C=C/c3ccccc3)cc2)c1	2.1			
COc1ccc2cc(-c3ccc(NC(=O)CCc4ccccc4)cc3)ccc2c1	0			
NC(=O)/C=C/c1ccc(O)c(/C=C/c2cc(O)cc(O)c2)c1	76.6		18.4	
COc1cc(CCc2ccc(NC(=O)/C=C/c3ccccc3)cc2)cc(OC)c1	0.04	21.8		

SMILES	inhibition [1] [%]	IC50 (MDA-MB-231) [µM]	inhibition [2] [%]	IC50 (HepG2) [µM]
Oc1ccc2cc(-c3ccc(Cl)cc3Cl)cnc2c1		16.7		
CNC(=O)/C=C/c1ccc(O)c(/C=C/c2cc(O)cc(O)c2)c1	63.5		1.2	
CNC(=O)/C=C/c1cc(/C=C/c2cc(O)cc(O)c2)ccc1O	45		2.4	
O=C(CCc1ccccc1)Nc1ccc(-c2cnc3cc(O)ccc3c2)cc1	9.7			
O=C(/C=C/c1ccc(O)c(/C=C/c2cc(O)cc(O)c2)c1)N1CCCCC1	91.3	19.8	18.3	
O=C(CCc1ccccc1)Nc1ccc(CCc2cc(O)cc(O)c2)cc1	9.1	4.6		2.9
CNC(=O)/C=C/c1ccc(/C=C/c2cc(O)cc(O)c2)cc1	29.7		2.3	
O=C(/C=C/c1ccccc1)Nc1ccc(O)c(/C=C/c2cc(O)cc(O)c2)c1	98.1	24.7	61.5	
O=C(CCc1ccccc1)Nc1ccc(NC(=O)c2cc(O)cc(O)c2)cc1	54.5		4.1	
COc1ccc2cc(-c3ccc(NC(=O)CCc4ccccc4)cc3)cnc2c1	19.7	21.1	0	
COc1ccc2cc(-c3ccc(NC(=O)/C=C/c4ccccc4)cc3)ccc2c1	0.1			
COc1cc(/C=C/c2ccc(NC(=O)/C=C/c3ccccc3)cc2)cc(OC)c1	15.3		0.1	
COc1ccc2nc(-c3ccc(NC(=O)CCc4ccccc4)cc3)sc2c1	0			
Oc1cc(O)cc(/C=C/c2ccc(O)c(-c3ccccc3)c2)c1	87.2	42.4	10.5	
CN(C)C(=O)/C=C/c1ccc(/C=C/c2cc(O)cc(O)c2)cc1	47.8	19.9	0.1	
O=C(/C=C/c1ccccc1)Nc1ccc(NC(=O)c2cc(O)cc(O)c2)cc1	67.2		27.1	36.6

Reference: ChEMBL document CHEMBL5352412, “Discovery of 1,2-diphenylethene derivatives as human DNA topoisomerase II catalytic inhibitors and antitumor agents” (Eur J Med Chem, 2022)
